Laboratory results taken from patent US6737383B1, “Herbicidal oxadiazolidines” (priority 1999, dated 2004).

Legend:
bedstraw = assay: Test B pre/postemergence bedstraw; type: in vivo, Galium aparine; details: Preemergence; for Plant response rating, Bedstraw: Rate 125 g/ha
In short: (§1)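 Response is a visual 0-to-10 score relative to untreated plants, where 0 means no effect and 10 means complete control, taken twelve to sixteen days after application. Treatments went onto soil at planting and onto foliage of 1- to 4-leaf plants, using a surfactant-containing non-phytotoxic solvent.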

corn = assay: Test B pre/postemergence corn; type: in vivo, Zea mays; details: Preemergence; for Plant response rating, Corn: Rate 125 g/ha
In short: as §1

crabgrass = assay: Test B pre/postemergence crabgrass; type: in vivo, Digitaria sanguinalis; details: Preemergence; for Plant response rating, Crabgrass: Rate 125 g/ha
In short: as §1

cocklebur = assay: Test B pre/postemergence cocklebur; type: in vivo, Xanthium strumarium; details: Preemergence; for Plant response rating, Cocklebur: Rate 125 g/ha
In short: as §1

wild oat = assay: Test B pre/postemergence wild oat; type: in vivo, Avena fatua; details: Preemergence; for Plant response rating, Wild oats: Rate 125 g/ha
In short: as §1

rape = assay: Test B pre/postemergence rape; type: in vivo, Brassica napus; details: Preemergence; for Plant response rating, Rape: Rate 125 g/ha
In short: as §1

velvetleaf = assay: Test B pre/postemergence velvetleaf; type: in vivo, Abutilon theophrasti; details: Preemergence; for Plant response rating, Velvetleaf: Rate 125 g/ha
In short: as §1

sugar beet = assay: Test B pre/postemergence sugar beet; type: in vivo, Beta vulgaris; details: Preemergence; for Plant response rating, Sugarbeets: Rate 125 g/ha
In short: as §1

morningglory = assay: Test B pre/postemergence morningglory; type: in vivo, Ipomoea hederacea; details: Preemergence; for Plant response rating, Morningglory: Rate 125 g/ha
In short: as §1

giant foxtail = assay: Test B pre/postemergence giant foxtail; type: in vivo, Setaria faberii; details: Preemergence; for Plant response rating, Giant foxtail: Rate 125 g/ha
In short: as §1

wheat = assay: Test B pre/postemergence wheat; type: in vivo, Triticum aestivum; details: Preemergence; for Plant response rating, Wheat: Rate 125 g/ha
In short: as §1

purple nutsedge = assay: Test B pre/postemergence purple nutsedge; type: in vivo, Cyperus rotundus; details: Preemergence; for Plant response rating, Nutsedge: Rate 125 g/ha
In short: as §1

blackgrass = assay: Test B pre/postemergence blackgrass; type: in vivo, Alopecurus myosuroides; details: Preemergence; for Plant response rating, Blackgrass: Rate 125 g/ha
In short: as §1

pigweed = assay: Test B pre/postemergence pigweed; type: in vivo, Amaranthus retroflexus; details: Preemergence; for Plant response rating, Redroot pigweed: Rate 125 g/ha
In short: as §1

soybean = assay: Test B pre/postemergence soybean; type: in vivo, Glycine max; details: Preemergence; for Plant response rating, Soybean: Rate 125 g/ha
In short: as §1

surinam grass = assay: Test B pre/postemergence surinam grass; type: in vivo, Brachiaria decumbens; details: Preemergence; for Plant response rating, B. signalgrass: Rate 125 g/ha
In short: as §1

[1] = Rate 62 g/ha, scale of 0 to 10 where 0 is no effect and 10 is complete control
[2] = scale of 0 to 10 where 0 is no effect and 10 is complete control
[3] = Rate 250 g/ha, scale 0 (no effect) to 10 (complete control)
[4] = Rate 500 g/ha, scale 0 to 10 (0 no effect, 10 complete control)

## CC(C)N(C(=O)n1oc(=O)n(C(C)C(=S)N(C)C)c1=O)c1ccc(F)cc1 (centres unmarked) [Compound 728]
bedstraw; [1]
  Bedstraw plant response rating: 0
bedstraw; [2]
  Plant response rating, Bedstraw: 0
bedstraw; [3]
  Bedstraw plant response rating: 0
bedstraw; [4]
  Bedstraw plant response rating: 2
corn; [1]
  Corn plant response rating: 0
corn; [2]
  Plant response rating, Corn: 0
corn; [3]
  Corn plant response rating: 0
corn; [4]
  Corn plant response rating: 0
crabgrass; [1]
  Crabgrass plant response rating: 6
crabgrass; [2]
  Plant response rating, Crabgrass: 6
crabgrass; [4]
  Crabgrass plant response rating: 7
cocklebur; [1]
  Cocklebur plant response rating: 0
cocklebur; [2]
  Plant response rating, Cocklebur: 0
cocklebur; [3]
  Cocklebur plant response rating: 0
cocklebur; [4]
  Cocklebur plant response rating: 0
Wild oat; [1]
  Wild oats plant response rating: 0
Wild oat; [2]
  Plant response rating, Wild oats: 4
Wild oat; [3]
  Wild oats plant response rating: 10
Wild oat; [4]
  Wild oats plant response rating: 10
rape; [1]
  Rape plant response rating: 0
rape; [2]
  Plant response rating, Rape: 3
rape; [3]
  Rape plant response rating: 6
rape; [4]
  Rape plant response rating: 8
velvetleaf; [1]
  Velvetleaf plant response rating: 0
velvetleaf; [2]
  Plant response rating, Velvetleaf: 0
velvetleaf; [3]
  Velvetleaf plant response rating: 0
velvetleaf; [4]
  Velvetleaf plant response rating: 0
Sugar beet; [1]
  Sugarbeets plant response rating: 0
Sugar beet; [2]
  Plant response rating, Sugarbeets: 0
Sugar beet; [3]
  Sugarbeets plant response rating: 4
Sugar beet; [4]
  Sugarbeets plant response rating: 4
morningglory; [1]
  Morningglory plant response rating: 0
morningglory; [2]
  Plant response rating, Morningglory: 0
morningglory; [3]
  Morningglory plant response rating: 2
morningglory; [4]
  Morningglory plant response rating: 2
Giant foxtail; [1]
  Giant foxtail plant response rating: 4
Giant foxtail; [2]
  Plant response rating, Giant foxtail: 7
Giant foxtail; [3]
  Giant foxtail plant response rating: 8
Giant foxtail; [4]
  Giant foxtail plant response rating: 8
wheat; [1]
  Wheat plant response rating: 0
wheat; [2]
  Plant response rating, Wheat: 0
wheat; [3]
  Wheat plant response rating: 5
wheat; [4]
  Wheat plant response rating: 7
Purple nutsedge; [1]
  Nutsedge plant response rating: 0
Purple nutsedge; [2]
  Plant response rating, Nutsedge: 0
blackgrass; [1]
  Blackgrass plant response rating: 0
blackgrass; [2]
  Plant response rating, Blackgrass: 9
blackgrass; [3]
  Blackgrass plant response rating: 9
blackgrass; [4]
  Blackgrass plant response rating: 10
pigweed; [1]
  Redroot pigweed plant response rating: 0
pigweed; [2]
  Plant response rating, Redroot pigweed: 7
pigweed; [3]
  Redroot pigweed plant response rating: 8
pigweed; [4]
  Redroot pigweed plant response rating: 9
soybean; [1]
  Soybean plant response rating: 0
soybean; [2]
  Plant response rating, Soybean: 0
soybean; [3]
  Soybean plant response rating: 0
soybean; [4]
  Soybean plant response rating: 0
Surinam grass; [1]
  B. signalgrass plant response rating: 5
Surinam grass; [2]
  Plant response rating, B. signalgrass: 8
Surinam grass; [3]
  B. signalgrass plant response rating: 8
Surinam grass; [4]
  B. signalgrass plant response rating: 9

## COC(CCl)n1c(=O)on(C(=O)N(c2ccc(F)cc2F)C(C)C)c1=O (centres unmarked) [Compound 737]
bedstraw; [2]
  Plant response rating, Bedstraw: 0
bedstraw; [3]
  Bedstraw plant response rating: 0
bedstraw; Rate 62 g/ha, scale 0 to 10
  Bedstraw plant response rating: 0
bedstraw; [4]
  Bedstraw plant response rating: 0
corn; [2]
  Plant response rating, Corn: 2
corn; [3]
  Corn plant response rating: 3
corn; Rate 62 g/ha, scale 0 to 10
  Corn plant response rating: 0
corn; [4]
  Corn plant response rating: 6
crabgrass; [2]
  Plant response rating, Crabgrass: 9
crabgrass; [3]
  Crabgrass plant response rating: 10
crabgrass; Rate 62 g/ha, scale 0 to 10
  Crabgrass plant response rating: 8
crabgrass; [4]
  Crabgrass plant response rating: 10
cocklebur; [2]
  Plant response rating, Cocklebur: 0
cocklebur; [3]
  Cocklebur plant response rating: 0
cocklebur; Rate 62 g/ha, scale 0 to 10
  Cocklebur plant response rating: 0
cocklebur; [4]
  Cocklebur plant response rating: 0
Wild oat; [2]
  Plant response rating, Wild oats: 6
Wild oat; [3]
  Wild oats plant response rating: 8
Wild oat; Rate 62 g/ha, scale 0 to 10
  Wild oats plant response rating: 5
Wild oat; [4]
  Wild oats plant response rating: 9
rape; [2]
  Plant response rating, Rape: 0
rape; [3]
  Rape plant response rating: 5
rape; Rate 62 g/ha, scale 0 to 10
  Rape plant response rating: 0
rape; [4]
  Rape plant response rating: 6
velvetleaf; [2]
  Plant response rating, Velvetleaf: 0
velvetleaf; [3]
  Velvetleaf plant response rating: 4
velvetleaf; Rate 62 g/ha, scale 0 to 10
  Velvetleaf plant response rating: 0
velvetleaf; [4]
  Velvetleaf plant response rating: 5
Sugar beet; [2]
  Plant response rating, Sugarbeets: 5
Sugar beet; [3]
  Sugarbeets plant response rating: 6
Sugar beet; Rate 62 g/ha, scale 0 to 10
  Sugarbeets plant response rating: 1
Sugar beet; [4]
  Sugarbeets plant response rating: 6
morningglory; [2]
  Plant response rating, Morningglory: 2
morningglory; [3]
  Morningglory plant response rating: 2
morningglory; Rate 62 g/ha, scale 0 to 10
  Morningglory plant response rating: 1
morningglory; [4]
  Morningglory plant response rating: 3
Giant foxtail; [2]
  Plant response rating, Giant foxtail: 10
Giant foxtail; [3]
  Giant foxtail plant response rating: 10
Giant foxtail; Rate 62 g/ha, scale 0 to 10
  Giant foxtail plant response rating: 9
Giant foxtail; [4]
  Giant foxtail plant response rating: 10
wheat; [2]
  Plant response rating, Wheat: 0
wheat; [3]
  Wheat plant response rating: 2
wheat; Rate 62 g/ha, scale 0 to 10
  Wheat plant response rating: 0
wheat; [4]
  Wheat plant response rating: 2
Purple nutsedge; [2]
  Plant response rating, Nutsedge: 0
Purple nutsedge; [3]
  Nutsedge plant response rating: 0
Purple nutsedge; Rate 62 g/ha, scale 0 to 10
  Nutsedge plant response rating: 0
Purple nutsedge; [4]
  Nutsedge plant response rating: 0
blackgrass; [2]
  Plant response rating, Blackgrass: 9
blackgrass; [3]
  Blackgrass plant response rating: 9
blackgrass; Rate 62 g/ha, scale 0 to 10
  Blackgrass plant response rating: 6
blackgrass; [4]
  Blackgrass plant response rating: 10
pigweed; [2]
  Plant response rating, Redroot pigweed: 3
pigweed; [3]
  Redroot pigweed plant response rating: 6
pigweed; Rate 62 g/ha, scale 0 to 10
  Redroot pigweed plant response rating: 2
pigweed; [4]
  Redroot pigweed plant response rating: 8
soybean; [2]
  Plant response rating, Soybean: 0
soybean; [3]
  Soybean plant response rating: 0
soybean; Rate 62 g/ha, scale 0 to 10
  Soybean plant response rating: 0
soybean; [4]
  Soybean plant response rating: 0
Surinam grass; [1]
  B. signalgrass plant response rating: 4
Surinam grass; [2]
  Plant response rating, B. signalgrass: 4
Surinam grass; [3]
  B. signalgrass plant response rating: 8
Surinam grass; [4]
  B. signalgrass plant response rating: 9
